We go through two molecules from patent US4487761A, “Dopamine β-hydroxylase inhibitors” (Merck & Co., Inc., priority 1982, dated 1984).

The target in this assay is T1, Dopamine β-hydroxylase (Bos taurus, UniProt P15101).
T1 construct: Dopamine β-hydroxylase was obtained from beef adrenal glands; from tissue; host or cells: beef adrenal glands
T1 sequence (P15101 1-610): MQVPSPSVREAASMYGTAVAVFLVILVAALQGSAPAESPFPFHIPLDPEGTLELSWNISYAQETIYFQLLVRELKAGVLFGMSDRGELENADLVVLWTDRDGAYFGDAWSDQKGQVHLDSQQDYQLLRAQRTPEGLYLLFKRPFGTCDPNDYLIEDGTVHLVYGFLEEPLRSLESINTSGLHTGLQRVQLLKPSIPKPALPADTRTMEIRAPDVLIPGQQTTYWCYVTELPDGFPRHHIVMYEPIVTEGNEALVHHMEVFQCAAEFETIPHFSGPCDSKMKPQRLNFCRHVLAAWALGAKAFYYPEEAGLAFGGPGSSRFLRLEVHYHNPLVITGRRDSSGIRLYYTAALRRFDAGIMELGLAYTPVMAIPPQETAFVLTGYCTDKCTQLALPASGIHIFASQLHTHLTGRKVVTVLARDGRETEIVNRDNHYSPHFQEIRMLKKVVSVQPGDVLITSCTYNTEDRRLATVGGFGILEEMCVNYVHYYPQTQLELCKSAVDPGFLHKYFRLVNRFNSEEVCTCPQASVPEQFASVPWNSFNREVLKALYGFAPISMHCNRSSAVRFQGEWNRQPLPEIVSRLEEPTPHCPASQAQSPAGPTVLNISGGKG
Kind of assay: Dopamine β-Hydroxylase Inhibition Assay. The note with it: 5 mM tyramine, pH 5.5, 37° C., 10 minutes; enzyme from beef adrenal glands; read-out: I50 (inhibition median) (converted). The format is biochemical. As for the experimental part:
Dopamine β-hydroxylase was obtained from beef adrenal glands. Minced adrenals were homogenized with 0.025M potassium phosphate buffer (pH--6.4) and centrifuged. The supernatant was adjusted to a final concentration of 1% Triton X-100 (Calbiochem. Inc.) by the addition of one-fourth volume of a 5% Triton X-100 solution and stirred at room temperature for 30 minutes. The Triton X-100 treated supernatant was centrifuged, and fractionated with a 66% aqueous ammonium sulfate solution. The resulting precipitate was homogenized in 0.025M potassium phosphate buffer (pH=6.4) and dialyzed. The dialysate was applied to a DE-52 Cellulose Column (Whatman Co.), pre-equilibrated with 0.005M potassium phosphate buffer (pH=6.4), and preloaded with about 2 cm of acid-washed activated carbon, located directly above the cellulose resin. […]
The assay for the dopamine β-hydroxylase inhibition was carried out in a 1 ml incubation mixture containing 5 mM tyramine (freashly prepared), 1.5 mM ascorbic acid (prepared monthly), 0.4 mM sodium fumarate, 0.045 mM pargyline, catalase ([…] per ml, 500 units) and 0.065M sodium acetate buffer, pH 5.5. […] The optical absorbance of the organic phase was measured at 280 nm. […]

In the case of `Cc1nc(O)c(O)cc1O` [Compound II], the IC50 is around 0.262 µM.
Turning to `Cc1nc(O)c(O)c(CO)c1O` [Compound I], the IC50 is around 0.158 µM.
